# Test results reported in patent US11572590B2, “Methods for evaluating tumor cell spheroids using 3D microfluidic cell culture device” (Dana-Farber Cancer Institute, Inc., priority 2017, dated 2023).
# Read-outs that look alike come from different tables or passages of the source.
# Key:
# Assay in all cases: SelectScreen Kinase Profiling, single point inhibition and IC50 for off-target kinases
# Format in all cases: biochemical
# off-target kinases [1] = target: off-target kinases (Homo sapiens, UniProt P00533, T790M); conditions: EGFR (ErbB1) T790M, mutant y, ZLYTE, ATP Km app
# off-target kinases (Homo sapiens, UniProt P00533, T790M), sequence (P00533 25-1210 T790M): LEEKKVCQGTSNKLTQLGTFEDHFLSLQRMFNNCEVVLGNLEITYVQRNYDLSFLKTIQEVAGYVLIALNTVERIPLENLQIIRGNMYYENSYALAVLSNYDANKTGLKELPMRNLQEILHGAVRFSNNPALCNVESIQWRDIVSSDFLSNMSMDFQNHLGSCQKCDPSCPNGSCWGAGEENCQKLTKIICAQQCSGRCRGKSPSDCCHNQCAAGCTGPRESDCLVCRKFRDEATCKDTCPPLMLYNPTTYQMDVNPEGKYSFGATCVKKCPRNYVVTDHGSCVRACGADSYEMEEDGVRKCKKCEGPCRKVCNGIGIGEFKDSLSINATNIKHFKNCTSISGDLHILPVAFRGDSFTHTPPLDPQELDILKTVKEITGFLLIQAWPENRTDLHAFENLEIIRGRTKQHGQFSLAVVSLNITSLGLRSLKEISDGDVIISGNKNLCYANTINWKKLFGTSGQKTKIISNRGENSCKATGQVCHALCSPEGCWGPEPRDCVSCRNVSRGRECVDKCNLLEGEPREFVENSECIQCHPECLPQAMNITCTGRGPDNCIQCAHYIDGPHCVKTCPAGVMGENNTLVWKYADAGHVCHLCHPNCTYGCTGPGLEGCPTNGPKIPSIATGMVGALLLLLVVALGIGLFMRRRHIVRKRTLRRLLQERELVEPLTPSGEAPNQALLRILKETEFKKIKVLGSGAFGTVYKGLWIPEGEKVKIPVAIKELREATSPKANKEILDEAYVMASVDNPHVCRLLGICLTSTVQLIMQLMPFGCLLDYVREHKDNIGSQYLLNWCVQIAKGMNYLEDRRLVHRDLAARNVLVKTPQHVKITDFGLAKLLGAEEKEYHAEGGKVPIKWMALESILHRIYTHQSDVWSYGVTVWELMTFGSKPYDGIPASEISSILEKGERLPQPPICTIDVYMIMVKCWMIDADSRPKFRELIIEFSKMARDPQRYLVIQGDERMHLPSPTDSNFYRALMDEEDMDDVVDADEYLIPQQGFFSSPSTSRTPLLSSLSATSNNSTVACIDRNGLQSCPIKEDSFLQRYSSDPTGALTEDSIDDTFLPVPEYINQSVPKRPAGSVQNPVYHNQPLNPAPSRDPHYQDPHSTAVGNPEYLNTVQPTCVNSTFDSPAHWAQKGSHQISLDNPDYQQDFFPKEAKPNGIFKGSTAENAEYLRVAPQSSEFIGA
# off-target kinases [2] = target: off-target kinases (Homo sapiens, UniProt P15056, V600E); conditions: BRAF V599E
# off-target kinases (Homo sapiens, UniProt P15056, V600E), sequence (P15056 whole entry V600E): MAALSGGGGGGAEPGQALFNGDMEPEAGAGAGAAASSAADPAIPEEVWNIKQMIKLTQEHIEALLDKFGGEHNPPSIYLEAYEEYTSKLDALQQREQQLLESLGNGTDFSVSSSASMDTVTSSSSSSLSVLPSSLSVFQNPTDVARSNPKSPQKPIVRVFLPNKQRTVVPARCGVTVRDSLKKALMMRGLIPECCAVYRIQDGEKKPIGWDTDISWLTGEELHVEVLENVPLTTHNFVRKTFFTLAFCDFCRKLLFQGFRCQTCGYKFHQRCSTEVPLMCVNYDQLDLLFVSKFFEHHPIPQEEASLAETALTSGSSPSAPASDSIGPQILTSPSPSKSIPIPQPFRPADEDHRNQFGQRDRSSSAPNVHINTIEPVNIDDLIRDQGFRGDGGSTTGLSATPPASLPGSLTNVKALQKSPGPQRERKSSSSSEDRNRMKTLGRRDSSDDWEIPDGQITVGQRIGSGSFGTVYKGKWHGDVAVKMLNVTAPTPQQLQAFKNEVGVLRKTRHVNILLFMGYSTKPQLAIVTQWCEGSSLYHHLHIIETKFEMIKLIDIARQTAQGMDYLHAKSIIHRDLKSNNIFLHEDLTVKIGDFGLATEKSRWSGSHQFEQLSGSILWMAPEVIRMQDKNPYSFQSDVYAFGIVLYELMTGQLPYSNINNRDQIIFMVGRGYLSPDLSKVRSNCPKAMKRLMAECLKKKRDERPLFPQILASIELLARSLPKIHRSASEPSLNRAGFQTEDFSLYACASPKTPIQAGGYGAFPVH
# off-target kinases [3] = target: off-target kinases (Homo sapiens, UniProt P53779); conditions: MAPK10 (JNK3)
# off-target kinases (Homo sapiens, UniProt P53779), sequence (P53779 whole entry): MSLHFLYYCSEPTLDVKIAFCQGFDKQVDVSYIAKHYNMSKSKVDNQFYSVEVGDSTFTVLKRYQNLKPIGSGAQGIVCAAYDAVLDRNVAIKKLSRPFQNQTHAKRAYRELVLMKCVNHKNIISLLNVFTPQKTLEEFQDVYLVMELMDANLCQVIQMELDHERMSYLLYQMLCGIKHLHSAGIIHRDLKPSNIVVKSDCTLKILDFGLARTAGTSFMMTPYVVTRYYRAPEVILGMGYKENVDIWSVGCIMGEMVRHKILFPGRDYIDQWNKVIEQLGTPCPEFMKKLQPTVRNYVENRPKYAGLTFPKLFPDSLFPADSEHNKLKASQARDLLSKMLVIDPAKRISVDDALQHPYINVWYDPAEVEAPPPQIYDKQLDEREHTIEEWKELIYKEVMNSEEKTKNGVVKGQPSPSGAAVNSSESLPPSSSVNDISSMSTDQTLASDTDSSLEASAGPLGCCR
# off-target kinases [4] = target: off-target kinases (Homo sapiens, UniProt P57059); conditions: SIK1, LanthaScreen Binding
# off-target kinases (Homo sapiens, UniProt P57059), sequence (P57059 whole entry): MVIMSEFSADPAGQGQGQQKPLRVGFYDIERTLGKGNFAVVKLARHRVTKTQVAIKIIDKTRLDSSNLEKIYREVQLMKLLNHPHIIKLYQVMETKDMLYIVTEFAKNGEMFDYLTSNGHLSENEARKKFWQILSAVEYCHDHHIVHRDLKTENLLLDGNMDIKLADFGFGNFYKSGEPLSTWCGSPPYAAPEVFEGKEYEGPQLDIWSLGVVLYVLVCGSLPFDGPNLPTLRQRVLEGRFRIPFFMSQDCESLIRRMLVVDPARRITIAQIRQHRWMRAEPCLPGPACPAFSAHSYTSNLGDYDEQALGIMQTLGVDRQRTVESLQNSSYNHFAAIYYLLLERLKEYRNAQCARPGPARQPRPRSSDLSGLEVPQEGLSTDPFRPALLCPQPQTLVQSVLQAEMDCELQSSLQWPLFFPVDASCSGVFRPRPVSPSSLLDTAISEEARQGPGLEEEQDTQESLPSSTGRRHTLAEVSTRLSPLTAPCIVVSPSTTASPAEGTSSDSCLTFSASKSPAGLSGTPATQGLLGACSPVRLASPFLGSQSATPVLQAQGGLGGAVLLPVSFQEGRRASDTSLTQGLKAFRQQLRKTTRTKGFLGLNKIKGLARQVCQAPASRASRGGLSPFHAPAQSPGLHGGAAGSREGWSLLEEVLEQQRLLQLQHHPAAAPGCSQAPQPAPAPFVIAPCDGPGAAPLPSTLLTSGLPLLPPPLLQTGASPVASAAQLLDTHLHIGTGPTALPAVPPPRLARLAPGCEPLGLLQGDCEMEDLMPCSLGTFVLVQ
# off-target kinases [5] = target: T1, off-target kinases (Homo sapiens, UniProt Q12866); conditions: MERTK (cMER), ZLYTE, ATP Km app
# T1 sequence (Q12866 21-999): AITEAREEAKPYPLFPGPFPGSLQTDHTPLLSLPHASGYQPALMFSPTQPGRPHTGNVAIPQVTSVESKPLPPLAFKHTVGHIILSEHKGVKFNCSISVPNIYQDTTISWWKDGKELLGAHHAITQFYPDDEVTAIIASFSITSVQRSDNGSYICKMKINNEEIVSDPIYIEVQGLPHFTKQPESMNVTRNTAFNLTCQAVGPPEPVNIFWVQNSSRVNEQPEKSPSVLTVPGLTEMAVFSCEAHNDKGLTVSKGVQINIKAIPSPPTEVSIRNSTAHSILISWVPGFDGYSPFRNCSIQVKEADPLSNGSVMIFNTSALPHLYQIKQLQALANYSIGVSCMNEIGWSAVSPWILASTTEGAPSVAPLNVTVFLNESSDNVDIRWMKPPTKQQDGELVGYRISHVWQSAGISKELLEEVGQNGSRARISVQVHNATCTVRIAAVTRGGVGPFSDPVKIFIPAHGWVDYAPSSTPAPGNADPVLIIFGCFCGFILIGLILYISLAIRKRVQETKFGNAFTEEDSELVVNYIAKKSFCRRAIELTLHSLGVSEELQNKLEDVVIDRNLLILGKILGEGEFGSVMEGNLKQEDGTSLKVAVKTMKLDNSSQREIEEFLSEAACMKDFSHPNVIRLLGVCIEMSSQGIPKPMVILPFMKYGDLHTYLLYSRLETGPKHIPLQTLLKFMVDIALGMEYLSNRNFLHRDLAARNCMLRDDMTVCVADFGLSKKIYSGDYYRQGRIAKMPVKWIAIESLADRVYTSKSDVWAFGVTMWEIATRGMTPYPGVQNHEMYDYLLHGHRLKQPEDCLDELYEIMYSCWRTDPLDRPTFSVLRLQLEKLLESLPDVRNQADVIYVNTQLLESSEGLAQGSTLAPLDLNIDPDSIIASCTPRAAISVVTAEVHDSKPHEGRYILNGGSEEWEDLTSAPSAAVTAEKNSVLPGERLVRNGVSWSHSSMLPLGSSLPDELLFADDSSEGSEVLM
# off-target kinases [6] = target: off-target kinases (Homo sapiens, UniProt Q9UPE1); conditions: STK23 (MSSK1), ZLYTE, ATP Km app
# off-target kinases (Homo sapiens, UniProt Q9UPE1), sequence (Q9UPE1 whole entry): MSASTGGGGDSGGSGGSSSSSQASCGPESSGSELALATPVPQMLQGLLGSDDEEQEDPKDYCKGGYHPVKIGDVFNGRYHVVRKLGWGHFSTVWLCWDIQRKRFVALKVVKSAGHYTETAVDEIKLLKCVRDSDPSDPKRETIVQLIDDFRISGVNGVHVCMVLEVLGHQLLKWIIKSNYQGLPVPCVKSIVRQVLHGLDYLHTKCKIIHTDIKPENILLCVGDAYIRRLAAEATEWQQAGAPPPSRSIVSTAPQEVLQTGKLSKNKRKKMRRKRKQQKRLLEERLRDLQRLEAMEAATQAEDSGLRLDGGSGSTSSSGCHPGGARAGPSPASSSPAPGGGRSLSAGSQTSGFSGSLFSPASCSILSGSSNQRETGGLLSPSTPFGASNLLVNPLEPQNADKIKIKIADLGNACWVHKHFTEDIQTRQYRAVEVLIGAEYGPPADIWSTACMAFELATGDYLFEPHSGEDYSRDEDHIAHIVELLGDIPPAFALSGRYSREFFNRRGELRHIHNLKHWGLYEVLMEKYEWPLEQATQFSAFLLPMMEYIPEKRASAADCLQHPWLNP
# off-target kinases [7] = target: off-target kinases (Homo sapiens, UniProt Q9Y6E0); conditions: STK24 (MST3), ZLYTE, ATP Km app
# off-target kinases (Homo sapiens, UniProt Q9Y6E0), sequence (Q9Y6E0 whole entry): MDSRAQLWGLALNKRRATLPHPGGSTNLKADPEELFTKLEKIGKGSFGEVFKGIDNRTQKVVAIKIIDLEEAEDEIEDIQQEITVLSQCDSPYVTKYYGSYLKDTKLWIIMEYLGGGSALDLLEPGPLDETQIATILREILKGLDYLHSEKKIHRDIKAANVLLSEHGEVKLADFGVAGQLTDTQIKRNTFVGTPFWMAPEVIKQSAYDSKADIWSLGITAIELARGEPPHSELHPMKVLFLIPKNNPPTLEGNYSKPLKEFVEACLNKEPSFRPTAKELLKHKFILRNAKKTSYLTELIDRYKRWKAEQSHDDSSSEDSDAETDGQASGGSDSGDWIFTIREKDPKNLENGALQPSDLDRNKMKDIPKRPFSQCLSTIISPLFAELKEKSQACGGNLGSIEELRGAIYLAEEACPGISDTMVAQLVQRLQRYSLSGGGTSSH
# [8] = LanthaScreen Binding, read-out: % Inhibition 1
# [9] = LanthaScreen Binding, read-out: % Inhibition 2
# [10] = LanthaScreen Binding, read-out: % Inhibition Avg
compound,measurement,setting,value
"N#Cc1cc(-c2ncnc(Nc3ccc(N4CCN(C5COC5)CC4)cc3)n2)ccc1OC1CCOCC1 [Compound 1, 5-(4-((4-(4-(oxetan-3-yl)piperazin-1-yl)phenyl)amino)-1,3,5-triazin-2-yl)-2-((tetrahydro-2H-pyran-4-yl)oxy)benzonitrile]",inhibition,off-target kinases [1]; read-out: % Inhibition 1,25%
same,inhibition,off-target kinases [1]; read-out: % Inhibition 2,25%
same,inhibition,off-target kinases [1]; read-out: % Inhibition Avg,25%
same,inhibition,"off-target kinases [2]; ATP 100, ZLYTE, read-out: % Inhibition 1",63%
same,inhibition,"off-target kinases [2]; ATP 100, ZLYTE, read-out: % Inhibition 2",61%
same,inhibition,"off-target kinases [2]; ATP 100, ZLYTE, read-out: % Inhibition Avg",62%
same,inhibition,off-target kinases [2]; [8],50%
same,inhibition,off-target kinases [2]; [9],53%
same,inhibition,off-target kinases [2]; [10],52%
same,inhibition,off-target kinases [3]; [8],48%
same,inhibition,off-target kinases [3]; [9],49%
same,inhibition,off-target kinases [3]; [10],49%
same,inhibition,"off-target kinases [3]; ZLYTE, ATP 100, read-out: % Inhibition 1",20%
same,inhibition,"off-target kinases [3]; ZLYTE, ATP 100, read-out: % Inhibition 2",21%
same,inhibition,"off-target kinases [3]; ZLYTE, ATP 100, read-out: % Inhibition Avg",20%
same,inhibition,off-target kinases [4]; read-out: % Inhibition 1,57%
same,inhibition,off-target kinases [4]; read-out: % Inhibition 2,54%
same,inhibition,off-target kinases [4]; read-out: % Inhibition Avg,56%
same,inhibition,off-target kinases [5]; read-out: % Inhibition 1,27%
same,inhibition,off-target kinases [5]; read-out: % Inhibition 2,22%
same,inhibition,off-target kinases [5]; read-out: % Inhibition Avg,24%
same,inhibition,off-target kinases [6]; read-out: % Inhibition 1,2%
same,inhibition,off-target kinases [6]; read-out: % Inhibition 2,1%
same,inhibition,off-target kinases [6]; read-out: % Inhibition Avg,2%
same,inhibition,off-target kinases [7]; read-out: % Inhibition 1,-5%
same,inhibition,off-target kinases [7]; read-out: % Inhibition 2,8%
same,inhibition,off-target kinases [7]; read-out: % Inhibition Avg,1%
